Test results taken from patent US20250134889A1, “TARGETING IRE1 KINASE AND FMRP FOR PROPHYLAXIS, MANAGEMENT AND TREATMENT OF ATHEROSCLEROSIS” (CEDARS-SINAI MEDICAL CENTER, priority 2022, published 2025).

Test system: atherosclerosis in Apoe-/- mice
Assay: Atherosclerosis in Apoe-/- mice fed WD
Type: in vivo, mouse
Procedure: FIGS. 6A-6J depict that IRE1 kinase inhibition alleviates atherosclerosis. (Data are mean±SEM; Mann Whitney U test. * P≤0.05, ** P≤0.01, *** P≤0.001.) • 6A. Atherosclerosis experiment design in Apoe^−/− mice were fed with WD (12 weeks) and injected with vehicle (DMSO) or AMG-18 (30 mg/kg) once a day in the last 4 weeks of WD. • 6B. Lesion area calculated from en face aorta, stained with ORO (n=5; Scale bar=5 mm). • 6C. Total plaque area was calculated from H&E-stained aortic root sections (n=5; Scale bar=300 μm). • 6D. Foam cell area was calculated from ORO-stained aortic root sections (n=5; Scale bar=300 μm). • 6E. Necrotic area was calculated from H&E-stained aortic root sections (n=5; Scale bar=100 μm). • 6F. Atherosclerosis experiment design in Apoe^−/− mice were fed with WD (12 weeks) and injected with vehicle (DMSO) or AMG-18 (30 mg/kg) twice a day in the last 4 weeks of WD. • 6G. Lesion area calculated from en face aorta, stained with ORO (n=6; Scale bar=5 mm). • 6H. Total plaque area was calculated from H&E-stained aortic root sections (n=5; Scale bar=300 μm). • 6I. Foam cell area was calculated from ORO-stained aortic root sections (n=5; Scale bar=300 μm). • 6J. Necrotic area was calculated from H&E-stained aortic root sections (n=5; Scale bar=100 μm).
FIGS. 6K-6T depict: (Data are mean±SEM; Mann Whitney U test. * P≤0.05, ** P≤0.01, *** P≤0.001.) • 6K. The ratio of mouse weight at the beginning of the experiment over the weight at the end of the experiment in FIG. 6A (n=5). • 6L-6N. Plasma measurements for (6L) glucose (n=5) and (6M) cholesterol (n=5) from mice in FIG. 6A. (6N) Abundance of B cells, T cells and monocytes in the peripheral blood as % of total CD45+ cells from the vehicle (DMSO) or AMG-18 (30 mg/kg) once a day injected mice in FIG. 6A (n=5). • 6O. Protein lysates of liver from mice in FIG. 6A. Proteins were analyzed by western blotting using specific antibodies for pIRE1 and β-Actin (n=5). • 6P. The ratio of mouse weight at the beginning of the experiment over the weight at the end of the experiment in FIG. 6F (n=6). • 6Q-6R. Plasma measurements for (6Q) glucose (n=6) and (6R) cholesterol (n=6) from FIG. 6F. • 6S-6T. Protein lysates of (6S) thioglycolate-elicited PM and (6T) liver from mice in FIG. 6F. Proteins were analyzed by western blotting using specific antibodies for pIRE1 and β-Actin (n=6).
Mice studies and treatments: C57BL/6 (WT, Fmr1^+/+), Fmr1^−/− and Apolipoprotein E-deficient (Apoe^−/−) mice were purchased from Jackson Laboratory. IRE1 conditional knock out (Ire1α^flox/flox) mice were a kind gift from Dr. Takao Iwawaki (Kanazawa Medical University, Japan) and characterized before (Iwawaki et al, 2009). […] Fmr1 conditional knock out (Fmr1^flox/flox) mice were a kind gift from dr. David Nelson. Fmr1^flox/flox mice were inter-crossed with LysM^cre mice purchased from Jackson Lab (004781) to obtain myeloid Fmr1-deficient (myFmr1^−/−) mice. Starting at 8 weeks of age, Fmr1^−/−, Fmr1^−/−, myFmr1/or myFmr1^−/− mice were injected with 1×10^10 AAV_PCSK9 (AAV8-D377Y-mPCSK9, Vector BiolabsAAV-268246) via tail vein, then fed with normal chow or high cholesterol/high fat atherosclerotic mouse diet from Envigo (TD.88137) for 6 to 16 weeks. Apoe^−/− mice were fed with WD (12 weeks) and intraperitoneally injected with vehicle (DMSO) or AMG-18 (30 mg/kg) once or twice a day in the last 4 weeks of WD. C57BL/6 were injected with Tunicamycin (TM, 1 mg/kg) and with AMG-18 (30 mg/kg) or vehicle (DMSO) in 20% vol/vol Cremophor EL saline solution. 8 hours later peritoneal macrophages were isolated by thioglycolate elicitation for further analysis. Mice were kept under specific pathogen-free conditions with food and water ad libititum. Both female and male mice were used for experiments. […]

[1] = 30 mg/kg once daily, last 4 weeks of 12 weeks WD
[2] = 30 mg/kg twice daily, last 4 weeks of 12 weeks WD

SMILES: Cc1ccc2c(NS(=O)(=O)c3ccccc3Cl)cccc2c1Oc1ncccc1-c1ccnc(N[C@H]2CCCNC2)n1 [AMG-18]
- aortic root lesion area [1]: not different
- atherosclerotic lesions in en face aorta preparations [1]: decrease
- body weight [1]: no significant differences
- foam cell area [1]: significantly decreased
- necrotic core area [1]: significantly decreased
- number of circulating immune cells [1]: no significant differences
- IRE1 autophosphorylation (target engagement) (30 mg/kg once daily, liver lysates): reduced
- aortic root lesion area [2]: did not alter
- atherosclerotic lesions in en face aorta preparations [2]: significant decrease
- body weight ratio [2]: decrease
- foam cell area [2]: significantly decreased
- necrotic core area [2]: significantly decreased
- IRE1 autophosphorylation (target engagement) (30 mg/kg twice daily, PM and liver lysates): reduced
